In ChEMBL document CHEMBL3639235, “Depsipeptides and their therapeutic use” (2014):

Target: Histone deacetylase 1 (Homo sapiens, UniProt Q13547)
Assay: Fluorescent Activity Assay: In vitro HDAC assays were performed using a HDAC fluorescent activity assay kit (Biomol, UK) according to the manufacturer's instructions. Compounds were reduced prior to analysis; 1 mM compound was reduced with 30 mM DTT in DMSO overnight at room temperature, protected from light. Reactions were then set up in a 96-well plate. For each reaction 10 ul compound (5x required concentration in assay buffer) was mixed with […] diluted HeIa Nuclear Extract (30-fold in assay buffer). Serial dilutions were set up for each compound. Reactions containing HeIa extract only and assay buffer only were also set up. 25 ul diluted Fluor de Lys substrate (100-fold in assay buffer) was added to each reaction, which were then incubated at 37C for 1 hour. The reaction was stopped by addition of 50 ul Fluor de Lys Developer (20-fold dilution in assay buffer, plus TSA diluted 100-fold). The reactions were then incubated at room temperature for 10 minutes before fluorescence was measured.

Histone deacetylase 1, sequence (Q13547 whole entry): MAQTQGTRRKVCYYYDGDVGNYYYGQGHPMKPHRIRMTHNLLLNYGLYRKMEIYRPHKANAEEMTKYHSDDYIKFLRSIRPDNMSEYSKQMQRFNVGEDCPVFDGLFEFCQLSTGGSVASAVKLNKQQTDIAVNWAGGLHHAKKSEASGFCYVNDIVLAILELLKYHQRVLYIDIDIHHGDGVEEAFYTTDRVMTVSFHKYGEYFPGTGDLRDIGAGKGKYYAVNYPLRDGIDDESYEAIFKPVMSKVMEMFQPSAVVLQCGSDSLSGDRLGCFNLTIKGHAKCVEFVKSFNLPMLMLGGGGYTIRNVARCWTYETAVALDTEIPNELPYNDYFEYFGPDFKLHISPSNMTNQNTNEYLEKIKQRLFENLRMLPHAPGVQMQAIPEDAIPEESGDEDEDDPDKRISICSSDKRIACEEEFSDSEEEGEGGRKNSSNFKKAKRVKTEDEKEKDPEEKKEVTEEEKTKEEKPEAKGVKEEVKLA

- IC50: 21.6 nM
Compound: CC(=O)SCC/C=C/[C@@H]1CC(=O)N[C@H](C(C)C)C(=O)N[C@H](C)C(=O)N[C@H](C(C)C)[C@@H](O)CC(=O)O1
